# Columns and labels:
# SCCHN = conditions: monotherapy studies in SCCHN, ITT population, standard of care drugs; cited from earlier work
# recurrent SCCHN = assay: Phase 3 pivotal trial T301 (ADVEXIN or methotrexate), tumor response and survival; format: in vivo, human
# From the text: Favorable response to the therapy may comprise reduction in tumor size or burden, blocking of tumor growth, reduction in tumor-associated pain, reduction in tumor-associated pathology, reduction in tumor-associated symptoms, tumor non-progression, increased disease free interval, increased time to progression, induction of remission, reduction of metastasis, or increased patient survival. Particularly, “tumor response” may refer to tumor growth control (tumor growth control (TGC) defined by complete (CR) and partial (PR) reductions in size of >50% or Stable Disease (SD); TGC=CR+PR+SD) or reductions in tumor size of >10%.
# Table 2 summarizes the results of these analyses and provides the corresponding data for patients treated with methotrexate in the pivotal Phase 3 T301 study.
# SCCHN patients = assay: Safety data, Phase III SCCHN study (ADVEXIN vs methotrexate)
# αv/β3 vascular integrin [1] = conditions: mice, without harming them; cited from earlier work
# αv/β3 vascular integrin [2] = target: T1, αv/β3 vascular integrin (Homo sapiens, UniProt P05106+P06756); conditions: Phase II clinical trials in humans, without harmful side effects; cited from earlier work
# T1 construct: the new blood vessels in tumors express a vascular integrin, designated αv/β3; host or cells: tumour blood vessels of human patients
# [3] = T301, p53 gene status wild type
# [4] = T301 methotrexate ITT population
# T1 sequence (P06756 31-889 limits assumed): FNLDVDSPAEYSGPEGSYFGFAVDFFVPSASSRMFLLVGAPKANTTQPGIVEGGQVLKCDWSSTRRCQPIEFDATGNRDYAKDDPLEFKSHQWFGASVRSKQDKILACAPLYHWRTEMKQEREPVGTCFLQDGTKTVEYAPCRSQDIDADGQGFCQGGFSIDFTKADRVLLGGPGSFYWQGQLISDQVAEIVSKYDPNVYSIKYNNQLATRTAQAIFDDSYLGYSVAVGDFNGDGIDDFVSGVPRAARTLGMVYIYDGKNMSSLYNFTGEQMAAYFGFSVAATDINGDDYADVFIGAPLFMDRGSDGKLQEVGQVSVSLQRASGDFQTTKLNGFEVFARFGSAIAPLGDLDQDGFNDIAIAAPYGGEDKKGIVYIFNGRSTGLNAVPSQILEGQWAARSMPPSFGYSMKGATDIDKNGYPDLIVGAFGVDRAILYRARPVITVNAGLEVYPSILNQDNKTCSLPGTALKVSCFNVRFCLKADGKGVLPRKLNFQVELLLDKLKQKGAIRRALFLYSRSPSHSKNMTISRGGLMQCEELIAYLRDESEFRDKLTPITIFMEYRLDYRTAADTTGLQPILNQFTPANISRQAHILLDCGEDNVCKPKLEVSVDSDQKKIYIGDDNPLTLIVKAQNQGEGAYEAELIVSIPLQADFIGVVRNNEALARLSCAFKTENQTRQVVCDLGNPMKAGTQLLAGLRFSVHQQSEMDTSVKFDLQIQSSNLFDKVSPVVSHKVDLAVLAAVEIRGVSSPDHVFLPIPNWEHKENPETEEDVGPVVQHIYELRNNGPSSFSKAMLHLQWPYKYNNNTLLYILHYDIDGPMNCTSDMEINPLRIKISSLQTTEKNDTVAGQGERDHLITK
# T1 sequence (P06756 891-1048 limits assumed): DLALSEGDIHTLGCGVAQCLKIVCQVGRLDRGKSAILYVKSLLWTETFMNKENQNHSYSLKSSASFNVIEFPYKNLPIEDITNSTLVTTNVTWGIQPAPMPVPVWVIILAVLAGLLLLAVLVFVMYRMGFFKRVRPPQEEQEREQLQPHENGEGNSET
# T1 sequence (P05106 27-788): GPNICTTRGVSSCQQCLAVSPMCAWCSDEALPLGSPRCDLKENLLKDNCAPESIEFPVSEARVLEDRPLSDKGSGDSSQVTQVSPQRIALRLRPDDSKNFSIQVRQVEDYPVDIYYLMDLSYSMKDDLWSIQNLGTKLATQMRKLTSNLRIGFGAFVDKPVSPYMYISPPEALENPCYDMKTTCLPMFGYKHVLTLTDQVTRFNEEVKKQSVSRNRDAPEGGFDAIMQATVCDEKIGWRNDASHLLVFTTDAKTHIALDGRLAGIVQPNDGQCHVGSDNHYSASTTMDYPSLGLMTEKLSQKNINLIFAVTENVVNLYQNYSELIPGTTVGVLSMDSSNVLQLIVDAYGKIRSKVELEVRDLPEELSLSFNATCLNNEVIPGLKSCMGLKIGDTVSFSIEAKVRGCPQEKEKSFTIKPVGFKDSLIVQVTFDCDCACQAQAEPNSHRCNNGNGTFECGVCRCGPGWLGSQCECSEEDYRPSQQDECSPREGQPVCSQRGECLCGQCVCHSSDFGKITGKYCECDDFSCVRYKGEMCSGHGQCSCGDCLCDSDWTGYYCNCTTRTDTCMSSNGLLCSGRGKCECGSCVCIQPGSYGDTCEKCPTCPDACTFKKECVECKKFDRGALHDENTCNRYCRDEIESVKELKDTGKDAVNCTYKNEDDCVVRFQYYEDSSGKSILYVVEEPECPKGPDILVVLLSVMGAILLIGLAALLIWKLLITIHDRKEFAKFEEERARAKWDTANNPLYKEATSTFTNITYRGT
molecule,measurement,setting,value
CC(=O)O[C@@]12CO[C@@H]1C[C@H](O)[C@@]1(C)C(=O)[C@H](O)C3=C(C)[C@@H](OC(=O)[C@H](O)[C@@H](NC(=O)OC(C)(C)C)c4ccccc4)C[C@@](O)([C@@H](OC(=O)c4ccccc4)[C@H]21)C3(C)C [Docetaxel],Median Overall Survival,SCCHN,6.6 months
C#Cc1cccc(Nc2ncnc3cc(OCCOC)c(OCCOC)cc23)c1 [Erlotinib],Median Overall Survival,SCCHN,5.8 months
CN(Cc1cnc2nc(N)nc(N)c2n1)c1ccc(C(=O)N[C@@H](CCC(=O)O)C(=O)O)cc1 [Methotrexate],"Median survival, patients with p53 profiles favorable for ADVEXIN efficacy",recurrent SCCHN; T301,4.3 months
same,"Median survival, patients with p53 profiles unfavorable for ADVEXIN efficacy",recurrent SCCHN; T301,6.0 months
same,"Tumor Growth Control, patients with TGC / patients","recurrent SCCHN; T301, p53 gene status mutated",13/15
same,"Tumor Growth Control, percentage of patients","recurrent SCCHN; T301, p53 gene status mutated",87%
same,"Tumor Growth Control, patients with TGC / patients",recurrent SCCHN; [3],11/20
same,"Tumor Growth Control, percentage of patients",recurrent SCCHN; [3],55%
same,"Median Survival, TGC Non-Responders",recurrent SCCHN; T301 ITT population,3.8 months
same,"Median Survival, TGC Responders",recurrent SCCHN; T301 ITT population,7.5 months
same,% Tumor Growth Control,"recurrent SCCHN; T301 ITT population, TGC = CR+PR+SD",53.3%
same,% Tumor Response (≥10% tumor reduction),recurrent SCCHN; [4],18.3%
same,% Tumor Response (≥50% tumor reduction),recurrent SCCHN; [4],11.7%
same,"Median Survival, Non-Responders (≥10% tumor reduction criterion)",recurrent SCCHN; [4],4.3 months
same,"Median Survival, Non-Responders (≥50% tumor reduction criterion)",recurrent SCCHN; [4],4.6 months
same,"Median Survival, Responders (≥10% tumor reduction)",recurrent SCCHN; [4],11.9 months
same,"Median Survival, Responders (≥50% tumor reduction)",recurrent SCCHN; [4],14.4 months
same,Median Overall Survival,SCCHN,4.2-5.6 months
same,Grade 3 or 4 laboratory event: leukopenia,SCCHN patients; Phase III SCCHN study,12.1%
same,Grade 3 or 4 laboratory event: lymphopenia,SCCHN patients; Phase III SCCHN study,25.6%
same,Grade 3 or 4 laboratory event: neutropenia,SCCHN patients; Phase III SCCHN study,12.1%
same,Incidence of Grade 3 or 4 laboratory events,SCCHN patients; Phase III SCCHN study,39.5%
same,Body weight loss over time,"SCCHN patients; Phase III SCCHN study, compared with ADVEXIN patients",more body weight loss
same,Deaths attributed to treatment,"SCCHN patients; Phase III recurrent SCCHN study, due to leukopenia",one death
same,"Incidences of stomatitis, nausea, pneumonia, paresthesia, leucopenia and neutropenia","SCCHN patients; Phase III study, relative to ADVEXIN",higher incidences
CC(=O)O[C@H]1C(=O)[C@@]2(C)[C@H]([C@H](OC(=O)c3ccccc3)[C@]3(O)C[C@H](OC(=O)[C@H](O)[C@@H](NC(=O)c4ccccc4)c4ccccc4)C(C)=C1C3(C)C)[C@]1(OC(C)=O)CO[C@@H]1C[C@@H]2O [Paclitaxel],Median Overall Survival,SCCHN,4.4 months
Carboplatin/5FU,Median Overall Survival,SCCHN,5.0 months
Cisplatin/5FU,Median Overall Survival,SCCHN,5.6-6.4 months
"Vitaxin®: a monoclonal antibody directed against the αv/β3 vascular integrin (antibody, chains of the INN, looked up, V domains shown) VH: QVQLVESGGGVVQPGRSLRLSCAASGFTFSSYDMSWVRQAPGKGLEWVAKVSSGGGSTYYLDTVQGRFTISRDNSKNTLYLQMNSLRAEDTAVYYCARHLHGSFASWGQGTTVTVSS VL: EIVLTQSPATLSLSPGERATLSCQASQSISNFLHWYQQRPGQAPRLLIRYRSQSISGIPARFSGSGSGTDFTLTISSLEPEDFAVYYCQQSGSWPLTFGGGTKVEIK",Effect on tumors,αv/β3 vascular integrin [1],shrinks tumors
same,Effect on solid tumors,αv/β3 vascular integrin [2],some promise in shrinking solid tumors
